Assay in all cases: DTP human tumour cell line panel, 48 h
The subject of experiment [1] is HOP-62 NSCLC.
The test system of experiment [2] is HT29 colon.
The subject of experiment [3] is MDA-N.
Experiment [4] concerns NCI-H226 lung.
Experiment [5] concerns NCI-H460 lung.
Experiment [6] relates to NCI-H522 lung.
Experiment [7] relates to OVCAR-5 ovarian.
In experiment [8] the test system is SNB-75 CNS.
The test system of experiment [9] is SR leukemia.
Experiment [10] has as its system NCI-H23 lung.

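These data come from cells grown in 96-well plates and exposed to compound for 48 hours at five concentrations. The concentration for full growth arrest is given as TGI.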

Broadly, the TGI is the concentration at which net growth stops. `CSc1cc(Cl)c(C)cc1S(=O)(=O)NC(=O)NNc1ccc(Cl)cc1`: the TGI in experiment [1], in experiment [2], in [3], in [4], in [5] and in [6] was greater than 100 µM in each case. Moreover, the TGI in experiment [7], in experiment [8] and in [9] was greater than 100 µM throughout.

As to `O=c1cc(N=P(c2ccccc2)(c2ccccc2)c2ccccc2)n(-c2ccccc2)c(=O)n1-c1ccccc1`, the TGI in experiment [1] was 32.4 µM; in experiment [2], greater than 100 µM; in experiment [3] it was 43.7 µM; in experiment [4], 22.2 µM; in [10], 32 µM; in experiment [5], 22 µM. For the same compound, the TGI in experiment [6] is 37.3 µM; in experiment [7], greater than 100 µM; in experiment [8], 39.9 µM; in experiment [9] it was 24.6 µM.

Take `CCOC(=O)c1c(-c2ccc(OC)cc2)c(C#N)c(=S)n(C2OC(COC(C)=O)C(OC(C)=O)C(OC(C)=O)C2OC(C)=O)c1C` (stereo not drawn): the TGI in [1], in [2], in [3], in experiment [4], in [10] and in experiment [5] was greater than 100 µM in each case. The TGI is greater than 100 µM in experiment [6], greater than 100 µM in experiment [7], 91 µM in [8] and greater than 100 µM in [9].

On to `Nc1c(-c2cccc3ccccc23)c2ccc([N+](=O)[O-])cc2c(=O)n1-c1nc2ccccc2s1`, for which the TGI in experiment [1] is 27.2 µM; in experiment [2], 19.9 µM; in experiment [3] it was greater than 31.6 µM; in experiment [4], 16.3 µM; in experiment [10], greater than 100 µM; in experiment [5] it was greater than 100 µM. For the same compound, the TGI in experiment [6] was 6.86 µM; in experiment [7] it was greater than 41.2 µM; in [8] it was 9.65 µM; in experiment [9], greater than 100 µM.

As for `CC(C)(C)NC(=O)/C(=C\Sc1ccccc1)c1ccc2c(c1)OCO2`, the total growth inhibition concentration (TGI) in [1] is greater than 100 µM; in [2], 35.9 µM; in experiment [3], 59.8 µM; in [10] it was greater than 100 µM; in experiment [6] it was 43.3 µM; in [7], greater than 100 µM. The compound further returned a TGI in experiment [9] of 83.8 µM.

Consider `N#C/C(=C\c1cc(Br)c(O)c(Br)c1)c1cccnc1`, for which the TGI in [1] was 97.2 µM; in experiment [2], greater than 100 µM; in experiment [3] it was greater than 100 µM; in [4], 91.4 µM; in experiment [10], 52.8 µM; in [5], greater than 100 µM. For the same compound, the TGI in experiment [6] was greater than 100 µM; in [7], greater than 100 µM; in experiment [8], greater than 100 µM; in [9], 76.5 µM.

For `Clc1ccc(-c2nn3c(-c4ccncc4)nnc3s2)cc1`, the TGI was 51.3 µM in experiment [1]; greater than 100 µM in experiment [2]; greater than 100 µM in [3]; greater than 100 µM in experiment [4]; greater than 100 µM in experiment [10]; greater than 100 µM in [5]. Moreover, the TGI in [6], in experiment [7] and in experiment [9] was greater than 100 µM throughout.

For the compound `C/C(CC1C2CCCC1C2)=N\NC(N)=O` (stereo not drawn), the TGI in experiment [1], in experiment [2], in experiment [3], in experiment [4], in [10] and in experiment [5] was greater than 100 µM throughout. The TGI in experiment [6], in [7], in [8] and in experiment [9] was greater than 100 µM in each case.

For `C/C=C/C=C/c1nc(C#N)c(N)o1`, the TGI in [1], in experiment [2], in experiment [3], in experiment [4], in experiment [10] and in experiment [6] was greater than 100 µM throughout. The TGI in experiment [7], in [8] and in [9] was greater than 100 µM in each case.

Take `O=c1c2ccccc2nc2[nH][nH]c(=S)n12`: the TGI in experiment [1], in [2], in [3], in experiment [4], in experiment [10] and in experiment [5] was greater than 100 µM each time. Also, the TGI in experiment [7], in experiment [8] and in experiment [9] was greater than 100 µM throughout.

Turning to `Cc1c(S(=O)(=O)/N=C(\N)Nc2ccc(Cl)cc2)sc2ccc(Cl)cc12`, the TGI in experiment [1] was determined as 36.9 µM; in experiment [2] it was 38.8 µM; in experiment [3], 47.1 µM; in experiment [4], 44 µM; in experiment [10] it was 41.5 µM; in experiment [5], 33.6 µM. The TGI in experiment [6] is 30.1 µM; in experiment [7], 38.1 µM; in experiment [8] it was 43.5 µM; in experiment [9], greater than 100 µM.

As to `CCN(CC)CCOc1ccc(N2C(=O)c3cc(OC)c(OC)cc3C2=O)cc1`, the TGI in experiment [1], in experiment [2], in experiment [3], in experiment [4], in experiment [10] and in experiment [5] was greater than 100 µM in each case. The TGI in experiment [6], in experiment [7] and in experiment [9] was greater than 100 µM throughout.

For the compound `CCOc1cc(C2CC(c3ccc(NS(=O)(=O)c4cc([N+](=O)[O-])ccc4C)cc3)=NN2C(=O)c2ccccc2)ccc1O` (stereo not drawn), the concentration for total growth inhibition (TGI) in experiment [1] was 47.2 µM; in [2], greater than 100 µM; in experiment [3] it was 70.6 µM; in experiment [4], greater than 100 µM; in experiment [10] it was 69 µM; in experiment [6] it was 64.5 µM. Further, the TGI in [7] was greater than 100 µM; in [8] it was 36.6 µM; in experiment [9], greater than 100 µM.

For the compound `CCOC(=O)NC(=S)NN(C)C1=NCC(C)(C)S1`, the TGI in experiment [1], in experiment [3], in experiment [5], in [6], in experiment [7] and in experiment [8] was greater than 100 µM in each case. The compound further displayed a TGI in [9] greater than 100 µM.
